# According to patent US20130267516A1, “SUBSTITUTED CYCLOPENTYL-AZINES AS CASR-ACTIVE COMPOUNDS” (LEO PHARMA A/S, priority 2010, published 2013):
# Biological target: T1, human CaSR (Homo sapiens, UniProt P41180)
# T1 construct: The ORF coding for the human CaSR (genebank: NM_000388)
# T1 sequence (P41180 20-1078): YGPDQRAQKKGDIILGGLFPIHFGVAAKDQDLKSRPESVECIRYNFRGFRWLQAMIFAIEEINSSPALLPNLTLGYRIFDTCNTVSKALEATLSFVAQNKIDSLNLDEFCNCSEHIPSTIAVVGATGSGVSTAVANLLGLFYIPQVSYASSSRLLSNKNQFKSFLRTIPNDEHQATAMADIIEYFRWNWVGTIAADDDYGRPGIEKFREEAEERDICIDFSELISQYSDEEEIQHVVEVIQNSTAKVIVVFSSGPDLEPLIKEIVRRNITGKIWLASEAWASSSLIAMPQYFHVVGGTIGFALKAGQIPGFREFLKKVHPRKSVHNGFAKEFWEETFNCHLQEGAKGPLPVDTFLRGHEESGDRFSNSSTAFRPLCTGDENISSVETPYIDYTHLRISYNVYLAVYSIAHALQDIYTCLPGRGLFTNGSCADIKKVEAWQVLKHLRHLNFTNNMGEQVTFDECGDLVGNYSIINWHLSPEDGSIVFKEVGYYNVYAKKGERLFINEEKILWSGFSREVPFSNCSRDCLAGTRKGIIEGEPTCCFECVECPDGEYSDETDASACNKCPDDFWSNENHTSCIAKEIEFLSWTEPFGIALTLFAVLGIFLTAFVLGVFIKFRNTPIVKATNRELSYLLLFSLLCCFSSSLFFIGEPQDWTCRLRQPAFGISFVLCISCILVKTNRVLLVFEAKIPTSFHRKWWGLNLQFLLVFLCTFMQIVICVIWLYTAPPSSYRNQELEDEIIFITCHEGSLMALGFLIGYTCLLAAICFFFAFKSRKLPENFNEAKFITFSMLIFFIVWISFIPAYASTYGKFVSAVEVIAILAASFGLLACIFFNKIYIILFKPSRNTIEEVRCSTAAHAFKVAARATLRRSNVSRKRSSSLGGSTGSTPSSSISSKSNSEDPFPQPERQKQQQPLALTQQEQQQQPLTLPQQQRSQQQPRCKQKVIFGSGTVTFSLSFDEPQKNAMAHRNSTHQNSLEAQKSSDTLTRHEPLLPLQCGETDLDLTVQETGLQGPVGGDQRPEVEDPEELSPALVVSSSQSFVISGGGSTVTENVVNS
# Assay: Functional whole cell assay (modulation of human CaSR), IP1 accumulation in CHO-K1 cells
# Type: cell-based
# Conditions: CHO-K1 cells stably expressing human CaSR, final Ca2+ 1.9 mM, IP1 readout; concentration giving 50% of maximum agonistic response
# Source text: The assay investigates a compound's functional ability to act as a biological positive modulator on the human CaSR. Activation of the receptor expressed on CHO-K1 cells is detected through the G alpha q pathway, the activation of phospholipase C and the accumulation of intracellular inositol phosphate (IP) as described earlier [Sandrine Ferry, Bruno Chatel, Robert H. Dodd, Christine Lair, Danielle Gully, Jean-Pierre Maffrand, and Martial Ruat. Effects of Divalent Cations and of a Calcimimetic on Adrenocorticotropic Hormone Release in Pituitary Tumor Cells. Biochemical and biophysical research Communications 238, 866-873 (1997)]. The human CaSR is stably expressed on a CHO-K1 cell clone, stimulated with a basal level of calcium and challenged with the tested compound. The level of IP1 is determined using the IP-One Terbium htrf kit (Cisbio, France). CHO-K1 cells not transfected with the CaSR fail to elicit an IP1 response upon calcium and/or compound stimulation.
# The ORF coding for the human CaSR (genebank: NM_000388) was acquired from Invitrogen Corp, USA and subsequently cloned into the mammalian expression vector pCDA3.1.
# CHO-K1 cells were transfected using Lipofectamine according to manufacturer's protocol (400.000 cells/well were seeded in a 6-well plate and transfected after 24 hours using 2 μg DNA and 5 μl lipofectamine). After another 24 hours the cells were detached, seeded and subjected to 1 mg/ml of G-418. Following 7 days growth single clones were picked, the CaSR expression evaluated using the 5C10 antibody against CaSR, the clones with the highest expression were selected and tested for functional response. The preferred clone was cultured according to standard procedures described in ATCC (American Type Culture Collection) protocols for CHO-K1 with the addition of 500 μg/ml G-418.
# On the assay day, cells were thawed, harvested and resuspended to 4*10^6 cells/ml in stimulation buffer (containing: Hepes 10 mM, MgCl2 0.5 mM, KCl 4.2 mM, NaCl 146 mM, glucose 5.5 mM, LiCl 50 mM, BSA 0.5% at pH 7.4). Ten μl cell solution was pipetted into wells of a white 384-well plate (Perkin Elmer Optiplate) containing 2 μl compound diluted in assay buffer (containing: Hepes 10 mM, MgCl2 0.5 mM, KCl 4.2 mM, NaCl 146 mM, glucose 5.5 mM, LiCl 50 mM, CaCl2 11.4 mM at pH 7.4), resulting in a final Ca^2+ concentration of 1.9 mM. After compound stimulation for 1 hour at 37° C. and 15 min at room temperature, 10 ul of IP-One assay detection reagent (prepared as described by the IP-One assay kit manufacturer) was added and the plate was incubated for another 1 hour at room temperature. Finally the plate was read using a Perkin Elmer EnVision, according to the protocol supplied by the IP-One assay kit manufacturer. The FRET ratio was calculated by dividing the 665 nm emission signal with that of the 615 nm.
# The molar concentration of a compound that produces 50% of the maximum agonistic response (the […] value) is calculated according to the equation “General sigmoidal curve with Hill slope, a to d” (Equation 1). This model describes a sigmoidal curve with an adjustable baseline. The equation can be used to fit curves where response is either increasing or decreasing with respect to the independent variable, X.
# y=(a−d)/(1+(x/c)̂b)+d Equation 1.
# x=concentration of tested compound y=response (%) a=min response as compound concentration approaches 0 d=max response as concentration of tested compound is increasing c=IC50 for the curve b=Hill coefficient or curve slope
row,SMILES,EC50
1,"COc1cc([C@@H](C)N[C@H]2CC[C@@H](c3ccc(NCCS(N)(=O)=O)nc3)C2)ccc1F [Compound 113, 2-[[5-[(1R,3S)-3-[[(1R)-1-(4-Fluoro-3-methoxyphenyl)ethyl]amino]cyclopentyl]-2-pyridyl]amino]ethanesulfonamide]",< 200 nM
2,"COc1cc([C@@H](C)N[C@H]2CC[C@@H](c3ccc(NCC(O)CO)nc3)C2)ccc1F (stereo partly drawn) [Compound 115, 3-[[5-[(1R,3S)-3-[[(1R)-1-(4-Fluoro-3-methoxyphenyl)ethyl]amino]cyclopentyl]-2-pyridyl]amino]propane-1,2-diol]",200 to 1000 nM
3,"COc1cc([C@@H](C)N[C@H]2CC[C@@H](c3ccc(N4CCN(C(C)=O)CC4)nc3)C2)ccc1F [Compound 116, 1-[4-[5-[(1R,3S)-3-[[(1R)-1-(4-Fluoro-3-methoxyphenyl)ethyl]amino]cyclopentyl]-2-pyridyl]piperazin-1-yl]ethanone]",< 200 nM
4,"COc1cc([C@@H](C)N[C@H]2CC[C@@H](c3cnc(N4CCNC(=O)C4)nc3)C2)ccc1F [Compound 126, 4-[5-[(1R,3S)-3-[[(1R)-1-(4-Fluoro-3-methoxy-phenyl)ethyl]amino]cyclopentyl]pyrimidin-2-yl]piperazin-2-one]",< 200 nM
5,"COc1cc([C@@H](C)N[C@H]2CC[C@@H](c3cnc(N4CCN(C(C)=O)CC4)nc3)C2)ccc1F.O=CO [Compound 127, 1-[4-[5-[(1R,3S)-3-[[(1R)-1-(4-Fluoro-3-methoxy-phenyl)ethyl]amino]cyclopentyl]pyrimidin-2-yl]piperazin-1-yl]ethanone]",200 to 1000 nM

# Next, values leading:
row,EC50,SMILES
1,< 200 nM,"C[C@@H](N[C@H]1CC[C@@H](c2ccc(NCCNCCO)nc2)C1)c1cccc2ccccc12.O=CO.O=CO.O=CO [Compound 101, 2-[2-[[5-[(1R,3S)-3-[[(1R)-1-(1-Naphthyl)ethyl]amino]cyclopentyl]-2-pyridyl]amino]ethylamino]ethanol]"
2,< 200 nM,"COc1cc([C@@H](C)N[C@H]2CC[C@@H](c3ccc(NC4CCNCC4)nc3)C2)ccc1F [Compound 107, 5-[(1R,3S)-3-[[(1R)-1-(4-Fluoro-3-methoxy-phenyl)ethyl]amino]cyclopentyl]-N-(4-piperidyl)pyridin-2-amine]"
3,< 200 nM,"COc1cc([C@@H](C)N[C@H]2CC[C@@H](c3ccc(N4CCNC(=O)C4)nc3)C2)ccc1F [Compound 109, 4-[5-[(1R,3S)-3-[[(1R)-1-(4-Fluoro-3-methoxy-phenyl)ethyl]amino]cyclopentyl]-2-pyridyl]piperazin-2-one]"
